In patent US12390482B2, “Neurolytic agents and methods of using and identifying same” (priority 2021, dated 2025):

Key:
[1] = tested on: WT mouse embryonic dorsal root ganglion (DRG) neurons; assay: MTT assay of neuronal death in WT DRG neurons; assay type: cell-based; details: 12 hr treatment
Protocol: (§1) DRG neuron culture: Mouse DRG culture was as described previously. Mouse DRGs were dissected at embryonic day 13.5. Approximately 50 ganglia were collected from each embryo and dissociated in 0.05% Trypsin containing 0.02% EDTA (Gibco) at 37° C. for 20 min. The DRG neurons were washed 3 times with DRG culture medium after incubation with Trypsin. Cells were seeded as spot cultures in 96-tissue culture plates (Corning) coated with 0.1 mg/ml poly-D-lysine and 0.1 mg/ml laminin. They were cultured in Neurobasal (Gibco) containing 2% B27 (Invitrogen), 100 ng/ml 2.5S NGF (Harlan Bioproducts), and 1 μM 5-fluoro-2′-deoxyuridine/1 μM uridine. The culture medium was exchanged with fresh DRG culture medium every 2-3 days. Lentiviruses were added 3 days after seeding (DIV3).

[2] = tested on: Sarm1 KO mice; assay: cADPR levels in sciatic nerve after IP injection, Sarm1 KO mice; assay type: in vivo, mouse; details: similar IP injections
Protocol: (§2) Mice: All experiments were performed in accordance with the protocols of the Institutional Animal Care and Use Committee of Washington University in St. Louis and the guidelines for the Care and Use of Laboratory Animals of the National Institutes of Health. Mice were housed on a 12 hr light dark cycle with less than 5 mice per cage and with water and food available at all times. Male and female mice were used for all experiments. 5-week old mice were used for IP injection and 5-6-month old mice were used for Surgifoam wrap treatments. Sarm1 KO mice were a gift from Macro Colonna at Department of Pathology and Immunology, Washington University School of Medicine in St. Louis, and C57BL/6 mice were purchased from Jackson Laboratory.
(§3) Metabolite measurement using LC-MS/MS: Lyophilized samples were reconstituted with 50 μl of 5 mM ammonium formate and centrifuged at 12,000 g for 10 min. Cleared supernatants were transferred to sample vials. Serial dilutions of standards for each metabolite in 5 mM ammonium formate were used for calibration. […] Raw data were acquired and quantified using MassHunter Workstation software version B.08.00 for 6400 Series Triple Quadrupole (Agilent Technologies, Santa Clara, CA). […]

[3] = tested on: Sarm1 KO mice; assay: Survival after IP injection of 3-AP, Sarm1 KO mice; assay type: in vivo, mouse
Protocol: as §2
(§4) IP injection and local application of 3-AP to sciatic nerve using Surgifoam wrap 5 week-old mice were used for IP injection experiment. Suitable skin incisions were made at the mid-thigh level of […], followed by a small incision or blunt dissection to the muscle fascia to permit retraction of the biceps femoris and gluteus superficialis muscles to expose the sciatic nerve. The nerve was carefully separated from surrounding connective tissue and then a 0.5×1 cm piece of sterile absorbable hemostatic material (Surgifoam) soaked in 500 mM 3-AP (or saline control) was wrapped around the sciatic nerve. […]

[4] = tested on: sciatic nerve of WT mice; assay: Local application to sciatic nerve using Surgifoam wrap, WT mice; assay type: in vivo, mouse
Protocol: as §2
(§5) IP injection and local application of 3-AP to sciatic nerve using Surgifoam wrap 5 week-old mice were used for IP injection experiment. Suitable skin incisions were made at the mid-thigh level of 5 week-old mice, followed by a small incision or blunt dissection to the muscle fascia to permit retraction of the biceps femoris and gluteus superficialis muscles to expose the sciatic nerve. The nerve was carefully separated from surrounding connective tissue and then a 0.5×1 cm piece of sterile absorbable hemostatic material (Surgifoam) soaked in 500 mM 3-AP (or saline control) was wrapped around the sciatic nerve. Wound clips, and/or tissue adhesive were used to close the incision.
Tissue processing: Tibial nerves from both control and 3-AP treated sides was dissected out 7 days post-surgery. The distal 2 cm portion of the nerve was fixed in 4% paraformaldehyde for 1 hr at room temperature, then moved to 30% sucrose and embedded in OCT for cryosectioning in the following day. Immunocytochemistry was performed on tibial cryosections using NF200 (Sigma N4142, 1:1000) and MBP (Millipore MAB386, 1:100) followed by anti-rabbit-Alexa488 (1:500) and anti-rat-Cy3 (1:500). The proximal 2 cm portion of the sciatic nerves were fixed in 3% Glutaraldehyde for processing and embedding in epoxy/plastic. Toluidine blue thick sections (400-600 nm thickness) were cut and axon counting was performed using binary image analysis.

[5] = tested on: Sarm1 KO DRG neurons; assay: Axon degeneration and neuronal death in cultured Sarm1 KO DRG neurons; assay type: cell-based, mouse; details: escalating doses, even at 1 mM
Protocol: as §1
(§6) Quantification of axon degeneration: After culture for 7 days, axotomy was performed by cutting DRG axons manually with a razor blade. After axon transection, bright-field images of distal axons were taken using the Operetta automated imaging system (PerkinElmer). Axon degeneration indexes were calculated from these bright-field images using ImageJ (NIH). The axon degeneration index was calculated as the ratio of fragmented axon areas as previously described. Indexes were calculated as the average of six fields per well.

[6] = tested on: WT DRG neurons; assay: Metabolite measurement by LC-MS/MS in WT DRG neurons; assay type: cell-based, mouse
Protocol: as §1
Metabolite measurement using LC-MS/MS: Lyophilized samples were reconstituted with 50 μl of 5 mM ammonium formate and centrifuged at 12,000 g for 10 min. Cleared supernatants were transferred to sample vials. Serial dilutions of standards for each metabolite in 5 mM ammonium formate were used for calibration. HPLC-mass spectrometry analysis was performed on an Agilent 1290 Infinity II liquid chromatography system (Agilent Technologies, Santa Clara, CA) with a flexible pump, multisampler, sample cooler and an MCT containing an Atlantis T3 column (2.1×150 mm, 3 μm) and VanGuard guard cartridge (2.1 mm×5 mm, 3 μm) (Waters, Milford, MA), coupled to an Agilent 6470 Triple Quad mass spectrometer (Agilent Technologies, Santa Clara, CA). The mobile phase (0.15 ml/min) was 5 mM ammonium formate in water (A) and 100% methanol (B). The column was equilibrated with 0% B, maintained after injection for 2 min, then a linear gradient to 20% B applied over 4 min. The column was then ramped to 50% B over 2 min, and held at 50% for 2 min, then reverted back to 0% B over the next 5 min and allowed to re-equilibrate at 0% B for 9 min. The total run time was 24 min per sample. […] Raw data were acquired and quantified using MassHunter Workstation software version B.08.00 for 6400 Series Triple Quadrupole (Agilent Technologies, Santa Clara, CA).

[7] = tested on: Sarm1 KO DRG neurons; assay: Metabolite measurement by LC-MS/MS in Sarm1 KO DRG neurons; assay type: cell-based, mouse; details: 3-AP-treated Sarm1 KO neurons
Protocol: as §1
Metabolite measurement using LC-MS/MS: Lyophilized samples were reconstituted with 50 μl of 5 mM ammonium formate and centrifuged at 12,000 g for 10 min. Cleared supernatants were transferred to sample vials. Serial dilutions of standards for each metabolite in 5 mM ammonium formate were used for calibration. […] Raw data were acquired and quantified using MassHunter Workstation software version B.08.00 for 6400 Series Triple Quadrupole (Agilent Technologies, Santa Clara, CA).

[8] = tested on: Sarm1 KO DRG neurons expressing W103A, R157A or K193R SARM1 mutants or wildtype SARM1; assay: Axon degeneration in Sarm1 KO DRG neurons infected with lentivirus expressing wildtype or allosteric pocket mutant SARM1; assay type: cell-based, mouse; details: 3-AP 300 μM
Protocol: as §1
Lentivirus production: Lentivirus production was performed as described previously. HEK 293T cells were seeded with the density of 1×10^6 in 35 mm well tissue culture plate (Corning). […]
as §6, with “After axon transection, bright-field images of distal axons were taken using the Operetta automated imaging system (PerkinElmer).” left out

[9] = tested on: SARM1; assay: cADPR levels in sciatic nerve after IP injection, WT mice; assay type: in vivo, mouse; details: 275 mg/kg IP, 3 days post-administration
Protocol: as §2, §3

[10] = tested on: sciatic nerve of Sarm1 KO mice; assay: Local application to sciatic nerve using Surgifoam wrap, Sarm1 KO mice; assay type: in vivo, mouse; details: 500 mM 3-AP, seven days
Protocol: as §2, §4

[11] = tested on: rabbits, dogs, mice and rats; details: early studies; could be blocked by administration of Nam; cited from earlier work
[12] = tested on: WT mice; assay: Survival after IP injection of 3-AP, WT mice; assay type: in vivo, mouse
Protocol: as §2, §5

[13] = tested on: WT mouse embryonic dorsal root ganglion (DRG) neurons; assay: Axon degeneration in cultured WT DRG neurons; assay type: cell-based; details: WT DRG neurons
Protocol: as §1
as §6, with “Quantification of axon degeneration: After culture for 7 days, axotomy was performed by cutting DRG axons manually with a razor blade.” left out

CC(=O)c1cccnc1 [3-AP, 3-acetylpyridine]
neuronal death (MTT assay) [1]: causes neuronal death at similar doses
cADPR levels in the sciatic nerve [2]: no alteration in cADPR levels
lethality ([3]; 275 mg/kg IP, n=5): no lethality
survival and phenotype ([3]; up to 500 mg/kg IP): survive and have no obvious phenotype
axon loss in tibial nerve distal to treatment site ([4]; WT mice, 500 mM 3-AP, seven days, vs contralateral or saline-treated nerve): dramatic loss of axons
gait after local treatment ([4]; WT mice, Surgifoam soaked in 500 mM 3-AP on sciatic nerve): rapidly develop an abnormal gait
axon damage in the proximal sciatic nerve ([4]; WT mice, proximal to site of 500 mM 3-AP application): no detectable axon damage
systemic harm after local application ([4]; local application to peripheral nerve): without apparent systemic harm
effect on axon degeneration and neuronal death [5]: no effect
NAD+ and ATP levels ([6]; 3-AP 300 μM, WT neurons): Substantial NAD^+ and ATP depletion
decline in NMN ([6]; within four hours, p<0.001, n=3): greater than 50%
changes in the levels of NAD+, ATP, or cADPR [7]: no significant changes
axons of Sarm1 KO neurons expressing SARM1 W103A, R157A or K193R ([8]; allosteric pocket mutants): remain intact
axon degeneration in Sarm1 KO neurons expressing wildtype SARM1 ([8]; lentiviral wildtype SARM1): restores 3-AP-induced axon degeneration
increase of cADPR levels in the sciatic nerve [9]: 3-4 fold
axon loss in treated nerve [10]: well protected from axon loss
toxicity on administration to animals [11]: severe neurotoxicity and death
survival ([12]; 275 mg/kg IP): generally survive
survival ([12]; 400 mg/kg IP): die rapidly
lethality ([12]; 500 mg/kg IP): rapidly lethal
doses at which axons rapidly degenerate at a rate similar to that after transection [13]: above 250 μM
dose at which axons begin to degenerate slowly ([13]; axonal integrity at multiple time points): 250 µM
